These results are taken from PMC4603303, “Activity of Novel Synthetic Peptides against Candida albicans” (Scientific Reports, 2015).

In brackets after ≈: the same amount, converted by molar mass. Ends that are not written are not given here.

For orientation: IC50 means the concentration needed to halve the response being measured. A lower IC50 goes with inhibition by little substance.

In data set [1] the test system is Candida strains. Put plainly: MIC, broth microdilution, range stated over several Candida strains. The class given is cell-based, Candida spp. As to the method:
(§1) C. albicans strains SC5314 and ATCC 90028, C. krusei ATCC 6258 and C. parapsilosis ATCC 22019 were used in the study. The strains were stored at −80°C in nutrient broth supplemented with 2.0% glycerol stock. Prior to experimentation, each strain was streaked for single colonies on Sabouraud Dextrose (SDA) agar plates and incubated overnight at 37°C.
(§2) Antifungal activity of the designed peptides was determined according to a standardized broth microdilution method (Clinical and Laboratory Standards Institute (CLSI) document M27-A2). Briefly, the yeast colonies from 24- hour-old cultures of Candida species were picked and resuspended in 5 mL of sterile 0.145 mol/L saline and adjusted to cell density of 1 × 10^6 to 5 × 10^6 cells/ml. The yeast stock suspension was then diluted to obtain a starting inoculum of 5.0 × 10^2 to 2.5 × 10^3 cells/ml. […] The drugs were dissolved in DMSO and prepared to a stock concentration of 25 mg/L and 50 mg/L, respectively. […] 100 μL of standardized yeast suspension was then added to each well. Plates were incubated for 48 hours at 37°C. The minimum inhibitory concentration (MIC) was defined as the lowest concentration that inhibited 90% growth of Candida species. The MICs were determined three times and each time in duplicate.
On the technique in general: Broth dilution looks for growth in wells or tubes with falling amounts of substance.

The subject of data set [2] is VK2/E6E7 cell line. The data set is described as follows: cells. Here is the method: (§3) The human normal vaginal epithelial cell line VK2/E6E7 (ATCC® CRL-2616™) and human normal esophagus epithelial cell line Het-1A (ATCC® CRL-2692™) were used for cytotoxicity testing. VK2/E6E7 cell line was grown in Keratinocyte-Serum Free medium (GIBCO-BRL 17005-042) supplemented with 0.1 ng/ml human recombinant EGF, 0.05 mg/ml bovine pituitary extract, and 44.1 mg/L calcium chloride. […] Cell viability was measured by using CellTiter 96® Aqueous Non-Radioactive Cell Proliferation Assay (Promega, USA) and the colourimetric changes were determined at 490 nm using a microplate reader. […] Results were recorded by averaging three repeated experiments and each experiment was performed in duplicate.

Data set [3] has as its system Het-1A cell line. Put plainly: cells. As to the method: as §3
For data set [4], the system named is C. albicans SC5314. Put plainly: Time killing assay. Format: cell-based, Candida albicans. Here is the method:
A fungal suspension was adjusted to a 0.5 McFarland turbidity standard with cell density of 1 × 10^6 to 5 × 10^6 cells/ml. 100 μL of adjusted yeast suspension was exposed to 900 μL of RPMI medium containing peptide, yielding a starting inoculum of approximately 10^5 cells/ml. The solutions were incubated at 37°C with agitation. At the predetermined time interval of 0, 1, 2, 4 and 6 hours, 10 μL or 30 μL of the samples were removed, serially diluted with phosphate-buffered saline (PBS) and plated on SDA plates to allow colony counts after 24 hours of incubation. Controls for yeast growth and antifungal agents were also performed. The lower limit of accurate and reproducible quantitation was 100 CFU/ml. Results were obtained from three independent experiments.

Data set [5] deals with Candida krusei ATCC 6258. Put plainly: MIC, broth microdilution (CLSI M27-A2). The class given is cell-based. To be noted: for MIC: Pichia kudriavzevii, ATCC6258, C. krusei ATCC 6258, RPMI 1640-MOPS, 48 h, 37°C, lowest concentration inhibiting 90% growth, three times in duplicate, read-out: Minimum Inhibitory Concentration (MIC); for Minimum Inhibitory Concentration (MIC): ATCC 6258, 48 h. Here is the method:
as §1, §2

For data set [6], the system named is Candida albicans ATCC 90028. Put plainly: MIC, broth microdilution (CLSI M27-A2). The settings on record: for MIC: Candida albicans, ATCC90028, C. albicans ATCC 90028, RPMI 1640-MOPS, 48 h, 37°C, lowest concentration inhibiting 90% growth, three times in duplicate, read-out: Minimum Inhibitory Concentration (MIC); for Minimum Inhibitory Concentration (MIC): ATCC 90028, 48 h. The class given is cell-based. As to the method:
as §1, §2

In data set [7] the test system is Candida albicans SC 5314. The data set is described as follows: MIC, broth microdilution (CLSI M27-A2). The class given is cell-based. To be noted: for MIC: Candida albicans, SC5314, C. albicans SC 5314, RPMI 1640-MOPS, 48 h, 37°C, lowest concentration inhibiting 90% growth, three times in duplicate, read-out: Minimum Inhibitory Concentration (MIC); for Minimum Inhibitory Concentration (MIC): SC 5314, 48 h. Here is the method: as §1, §2

Data set [8] relates to Candida parapsilosis ATCC 22019. Put plainly: MIC, broth microdilution (CLSI M27-A2). Format: cell-based. The settings on record: for MIC: Lodderomyces parapsilosis, ATCC22019, C. parapsilosis ATCC 22019, RPMI 1640-MOPS, 48 h, 37°C, lowest concentration inhibiting 90% growth, three times in duplicate, read-out: Minimum Inhibitory Concentration (MIC); for Minimum Inhibitory Concentration (MIC): ATCC 22019, 48 h. Here is the method:
as §1, §2

In data set [9] the test system is C. albicans SC5314 biofilms. Put plainly: Biofilm reduction assay (XTT). Format: cell-based, Candida albicans. The settings on record: minimum concentration giving 50% reduction of viability of 24 h-old biofilm, 24 h treatment, 1-4× MIC tested. As to the method:
Biofilms of C. albicans were formed on commercially available pre-sterilized, polystyrene, flat bottomed 96 well microtitre plates as described by Jin et al with modification. Firstly, a standardized yeast suspension (10^7 cells/ml) of C. albicans SC5314 was prepared by suspending colonies from 24-hours old culture in RPMI 1640 medium and adjusted to an optical density of 0.38–0.39 at 520 nm. 100 μL of yeast suspension was dispensed into each well of a microtitre plate using a multichannel pipette and the plates were incubated in a shaking incubator at 37°C with 75 rpm for 90 minutes to allow adherence of yeast on the surface of each well. After the adhesion phase, the non-adherent cells were removed and each well was washed twice with 150 μL PBS. 100 μL of RPMI 1640 medium was transferred to each washed well and the plates were incubated at 37°C in a shaking incubator at 75 rpm for 24 hours to allow biofilm formation. Following biofilm phase, the medium was aspirated and each well was washed twice gently with 200 μL PBS to remove non-adherent cells. Residual PBS was removed by inverting the plates over an absorbent paper before addition of peptides. […] Antifungal agent-free wells and biofilm-free wells were included as positive and negative controls. After treatment with peptides, the medium was removed and each well was washed twice with 200 μL PBS. The biofilm formation was quantified by using XTT reduction assay as described below. Each experiment was repeated three times in duplicate.
XTT reduction assay was performed according to the method adapted from Jin et al.[44] Briefly, XTT (Sigma) was dissolved to a concentration of 1 mg/ml using sterile PBS. XTT solution was then filter-sterilized using a 0.22 μm-pore-size filter and kept at −70°C prior to use. 0.4 mM menadione solution was prepared by dissolving menadione (Sigma) with acetone. The menadione solution was filter-sterilized and kept at −70°C before use. Prior to each assay, XTT solution was thawed and mixed with menadione solution at a volume ratio of 20:1. After washing, a total volume of 200 μL of XTT-menadione mixture (158 μL of PBS, 40 μL of XTT and 2 μL of menadione) was added to each prewashed biofilm and control wells. The plates were incubated in the dark for 2 hours at 37°C. 100 μL of the solution was transferred to new wells and the colorimetric change in the solution was measured using a microtiter plate reader at 490 nm. Antibiofilm activity of the peptides and conventional antifungals was expressed as the biofilm-eradicating concentration 2 (BEC-2), which is defined as the minimum concentration of the peptides resulting in 50% reduction of the biofilm viability compared to the growth control.
On the technique in general: Tetrazolium assays rely on reduction of a dye to a coloured formazan, in cell work by metabolically active cells.

Data set [10] concerns human erythrocytes. Put plainly: Haemolytic assay. The class given is cell-based. To be noted: red cells of human, 1 h. Here is the method:
Freshly collected human blood with heparin was centrifuged to remove the buffy coat. The erythrocytes were washed three times with PBS, centrifuged for 10 min at 2000 rpm at 10°C, and resuspended in PBS to 4% (vol/vol). […] PBS and 0.1% Triton X-100 were used as agents to induce 0 and 100% haemolysis, respectively. Plates were incubated for 1 hour at 37°C and centrifuged at 2000 rpm for 10 min. The supernatant (100 μL) was transferred to a 96-well flat-bottomed polystyrene plate, and the release of haemoglobin was monitored by measuring the absorbance at 560 nm using a microplate reader. Results were repeated three times and each time in duplicate. The percentage of haemolysis was calculated using the following formula: [drawing 2] where Ap and A100 represent the absorbance of erythrocytes treated with peptide and 0.1% Triton X-100. A0 is the absorbance of erythrocytes without treatment.

Where [11] appears, read: range against C. albicans and C. krusei.

Take `C[C@@H]1[C@H](O)[C@@H](C)/C=C/C=C/C=C/C=C/C=C/C=C/C=C/[C@H](O[C@@H]2O[C@H](C)[C@@H](O)[C@H](N)[C@@H]2O)C[C@@H]2O[C@](O)(C[C@@H](O)C[C@@H](O)[C@H](O)CC[C@@H](O)C[C@@H](O)CC(=O)O[C@H]1C)C[C@H](O)[C@H]2C(=O)O` [Amphotericin B, reference compound]: the “MIC values, range” value in data set [1] (range against four Candida strains (C. albicans and non-albicans species)) lay in the range of 0.5 to 1 µg/mL. For the same compound, the IC50 stood at 8.13 ± 4.54 µg/mL (≈ 8.8 µM) in [2] (Homo sapiens, 24 h); 7.64 ± 2.95 µg/mL (≈ 8.27 µM) in [2] (Homo sapiens, 48 h); 15.3 ± 3.72 µg/mL (≈ 16.6 µM) in [2] (Homo sapiens, 72 h); 9.91 ± 3.35 µg/mL (≈ 10.7 µM) in data set [3] (Homo sapiens, HET-1A, 24 h); 7.78 ± 1.7 µg/mL (≈ 8.42 µM) in [3] (Homo sapiens, HET-1A, 48 h); 9.1 ± 0.98 µg/mL (≈ 9.85 µM) in data set [3] (Homo sapiens, HET-1A, 72 h). The “% killing” value in data set [4] (2× MIC, within 2 hours) is reported as above 99.99%. In addition, the “mean log reduction in viable cells” value in data set [4] (2× MIC, within 2 hours, RPMI, 37°C, mean ± SD of three experiments) worked out at 5.44 ± 0.07 log CFU/mL. The MIC in [5] stood at 1 µg/mL (≈ 1.08 µM); in data set [6] it was 0.5 µg/mL (≈ 0.541 µM); in data set [7] it was 1 µg/mL (≈ 1.08 µM); in data set [8], 1 µg/mL (≈ 1.08 µM). The BEC-2 values in [9] is on record as below 1 mg/L; in data set [9] (listed as amphotericin B), above 1 mg/L.
`OC(Cn1cncn1)(Cn1cncn1)c1ccc(F)cc1F` [Fluconazole, reference compound]: the “MIC values, range” value in [1] (range for two C. albicans strains and C. parapsilosis) was 1 to 2 µg/mL. Further, the “reduction in yeast growth” value in data set [4] (2× MIC) is above 99.9%. Besides, the MIC in [5] stood at 64 µg/mL (≈ 209 µM); in data set [6], 2 µg/mL (≈ 6.53 µM); in [7], 1 µg/mL (≈ 3.27 µM); in [8], 1 µg/mL (≈ 3.27 µM). In addition, the BEC-2 values in data set [9] and in data set [9] (listed as fluconazole) was above 4 mg/L throughout.
Turning to GVIKAAKKVVKVLKKLF-NH2 [Upn-lys6], the “MIC values, range” value in data set [1] (setting [11]) was 32 to 64 µg/mL. In addition, the IC50 in data set [2] (24 h) came to 9.07 ± 1.92 µg/mL; in [2] (48 h) it was 10.04 ± 3.27 µg/mL; in [2] (72 h), 9.87 ± 1.46 µg/mL; in [3] (24 h), 7.49 ± 1.77 µg/mL; in data set [3] (48 h), 7.92 ± 1.22 µg/mL; in data set [3] (72 h), 11.20 ± 0.86 µg/mL. Moreover, in data set [10], the “Haemolytic activity HC10” value is above 256 mg/L. The “Haemolytic activity HC50” value in data set [10] was above 256 mg/L. In addition, the “% killing” value in [4] (SC5314, 4 h, 2) was above 99.99%. Moreover, the “mean log decrease in viable cells” value in data set [4] (SC5314, 4 h, 2) worked out at 5.56 ± 0.07 log CFU/mL. The “Minimum Inhibitory Concentration (MIC)” value in data set [5] is 32 µg/mL; in [6] it was 64 µg/mL; in data set [7], 32 µg/mL; in data set [8], 16 µg/mL.
GVIKAAKKVVKVLKNLF-NH2 [Upn-lys5]: in [1] (setting [11]), the “MIC values, range” value fell in the range of 32 to 64 µg/mL. Also, the IC50 in [2] (24 h) was 8.67 ± 2.21 µg/mL; in data set [2] (48 h), 10.28 ± 4.53 µg/mL; in data set [2] (72 h), 9.12 ± 1.20 µg/mL; in data set [3] (24 h) it was 9.73 ± 1.19 µg/mL; in data set [3] (48 h) it was 9.83 ± 1.40 µg/mL; in data set [3] (72 h), 15.73 ± 0.39 µg/mL. Besides, the “Haemolytic activity HC10” value in data set [10] was above 256 mg/L. Further, in data set [10], the “Haemolytic activity HC50” value is on record as above 256 mg/L. Moreover, the “% killing” value in [4] (SC5314, 6 h, 2) amounted to 99.99%. For the same compound, the “mean log decrease in viable cells” value in data set [4] (SC5314, 6 h, 2) is reported as 4.95 ± 1.24 log CFU/mL. Also, the “Minimum Inhibitory Concentration (MIC)” value in data set [5] worked out at 32 µg/mL; in [6] it was 64 µg/mL; in data set [7], 32 µg/mL; in data set [8] it was 32 µg/mL.
